Results taken from patent US20260125360A1, “HERBICIDAL IMIDAZOLE COMPOUNDS” (SYNGENTA CROP PROTECTION AG, priority 2022, published 2026).

Key:
Format in all cases: in vivo
Conditions in all cases: 250 g/ha, evaluated after 13 days
[1] = test system: Echinochloa crus-galli (ECHCG); experiment: Pre-emergence herbicide glasshouse test
In short: (§1)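 Spray: acetone/water 50:50 + 0.5% Tween 20, 250 g/ha unless stated; 1 d (pre) or 8 d (post) after sowing. Glasshouse 24/16° C, 14 h light, 65% RH, watered twice daily. Read-out at 13 d: % damage binned 1–5 (5=81-100%, 1=0-20%).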

[2] = test system: Amaranthus retoflexus (AMARE); experiment: Pre-emergence herbicide glasshouse test
In short: as §1

[3] = test system: Amaranthus palmeri (AMAPA); experiment: Pre-emergence herbicide glasshouse test
In short: as §1

[4] = test system: Ipomoea hederacea (IPOHE); experiment: Pre-emergence herbicide glasshouse test
In short: as §1

[5] = test system: Echinochloa crus-galli (ECHCG); experiment: Post-emergence herbicide glasshouse test
In short: as §1

[6] = test system: Amaranthus retoflexus (AMARE); experiment: Post-emergence herbicide glasshouse test
In short: as §1

[7] = test system: Amaranthus palmeri (AMAPA); experiment: Post-emergence herbicide glasshouse test
In short: as §1

[8] = test system: Ipomoea hederacea (IPOHE); experiment: Post-emergence herbicide glasshouse test
In short: as §1

| Compound | percentage damage caused to the plant, ECHCG (five-point scale) [1] | percentage damage caused to the plant, AMARE (five-point scale) [2] | percentage damage caused to the plant, AMAPA (five-point scale) [3] | percentage damage caused to the plant, IPOHE (five-point scale) [4] | percentage damage caused to the plant, ECHCG (five-point scale) [5] | percentage damage caused to the plant, AMARE (five-point scale) [6] | percentage damage caused to the plant, AMAPA (five-point scale) [7] | percentage damage caused to the plant, IPOHE (five-point scale) [8] |
| --- | --- | --- | --- | --- | --- | --- | --- | --- |
| Cc1nc(Cn2cc(C(F)(F)F)nc2-c2ccc(S(C)(=O)=O)cc2)no1 [Compound 1.159] | 1 (1=0-20%) | 5 (5=81-100%) | 5 (5=81-100%) | 5 (5=81-100%) | 2 (2=21-40%) | 5 (5=81-100%) | 5 (5=81-100%) | 5 (5=81-100%) |
| Cc1nc(Cn2cc(C(F)(F)F)nc2-c2cnc(F)c(Cl)c2)no1 [Compound 1.160] | 5 (5=81-100%) | 5 (5=81-100%) | 5 (5=81-100%) | 5 (5=81-100%) | 5 (5=81-100%) | 5 (5=81-100%) | 5 (5=81-100%) | 4 (4=61-80%) |
| Cc1cc(Cn2cc(C(F)(F)F)nc2-c2ccc(S(C)(=O)=O)cc2)ns1 [Compound 1.161] | 5 (5=81-100%) | 5 (5=81-100%) | 5 (5=81-100%) | 5 (5=81-100%) | 5 (5=81-100%) | 5 (5=81-100%) | 5 (5=81-100%) | 5 (5=81-100%) |
| Cc1cc(Cn2cc(C(F)(F)F)nc2-c2ccc(F)c(F)c2)ns1 [Compound 1.162] | 5 (5=81-100%) | 5 (5=81-100%) | 5 (5=81-100%) | 3 (3=41-60%) | 5 (5=81-100%) | 5 (5=81-100%) | 5 (5=81-100%) | 4 (4=61-80%) |
| Cc1cc(Cn2cc(C(F)(F)F)nc2-c2cnc(F)c(Cl)c2)no1 [Compound 1.163] | 5 (5=81-100%) | 5 (5=81-100%) | 5 (5=81-100%) | 5 (5=81-100%) | 5 (5=81-100%) | 5 (5=81-100%) | 5 (5=81-100%) | 4 (4=61-80%) |
| Cc1nnc(Cn2cc(C(F)(F)F)nc2-c2cnc(F)c(Cl)c2)s1 [Compound 1.164] | 4 (4=61-80%) | 5 (5=81-100%) | 5 (5=81-100%) | 5 (5=81-100%) | 2 (2=21-40%) | 5 (5=81-100%) | 4 (4=61-80%) | 3 (3=41-60%) |
| Cn1cnc(Cn2cc(C(F)(F)F)nc2-c2cnc(F)c(Cl)c2)n1 [Compound 1.165] | 5 (5=81-100%) | 5 (5=81-100%) | 5 (5=81-100%) | 5 (5=81-100%) | 5 (5=81-100%) | 5 (5=81-100%) | 5 (5=81-100%) | 5 (5=81-100%) |
| Cc1noc(Cn2cc(C(F)(F)F)nc2-c2cnc(Cl)c(F)c2)n1 [Compound 1.166] | 1 (1=0-20%) | 5 (5=81-100%) | 5 (5=81-100%) | 5 (5=81-100%) | 1 (1=0-20%) | 4 (4=61-80%) | 4 (4=61-80%) | 2 (2=21-40%) |
| Cc1nc(Cn2cc(C(F)(F)F)nc2-c2cnc(Cl)c(F)c2)no1 [Compound 1.167] | 5 (5=81-100%) | 5 (5=81-100%) | 5 (5=81-100%) | 5 (5=81-100%) | 5 (5=81-100%) | 5 (5=81-100%) | 5 (5=81-100%) | 4 (4=61-80%) |
| Cc1nc(Cn2cc(C(F)(F)F)nc2-c2ccc(F)c(F)c2)no1 [Compound 1.168] | 5 (5=81-100%) | 5 (5=81-100%) | 5 (5=81-100%) | 5 (5=81-100%) | 5 (5=81-100%) | 5 (5=81-100%) | 5 (5=81-100%) | 5 (5=81-100%) |
| Cc1noc(Cn2cc(C(F)(F)F)nc2-c2ccc(F)c(F)c2)n1 [Compound 1.169] | 4 (4=61-80%) | 5 (5=81-100%) | 5 (5=81-100%) | 5 (5=81-100%) | 3 (3=41-60%) | 5 (5=81-100%) | 5 (5=81-100%) | 3 (3=41-60%) |
| Cn1cnc(Cn2cc(C(F)(F)F)nc2-c2ccc(S(C)(=O)=O)cc2)n1 [Compound 1.170] | 4 (4=61-80%) | 5 (5=81-100%) | 5 (5=81-100%) | 5 (5=81-100%) | 2 (2=21-40%) | 5 (5=81-100%) | 5 (5=81-100%) | 3 (3=41-60%) |
| Cn1ccc(Cn2cc(C(F)(F)F)nc2-c2ccc(S(C)(=O)=O)cc2)n1 [Compound 1.171] | 1 (1=0-20%) | 4 (4=61-80%) | 4 (4=61-80%) | 3 (3=41-60%) | 1 (1=0-20%) | 1 (1=0-20%) | 1 (1=0-20%) | 2 (2=21-40%) |
| CCON=Cc1cn(Cc2ncn(C)n2)c(-c2cnc(Cl)c(F)c2)n1 [Compound 1.172] | 5 (5=81-100%) | 5 (5=81-100%) | 5 (5=81-100%) | 5 (5=81-100%) | 2 (2=21-40%) | 3 (3=41-60%) | 2 (2=21-40%) | 2 (2=21-40%) |
